ChEMBL document CHEMBL3621069 (Bioorg Med Chem Lett, 2015)
Converted amounts (≈) assume the structure as drawn.

Experiments:
[1] = target: T1, Tyrosine-protein kinase SYK (Homo sapiens, UniProt P43405); assay: Inhibition of purified full-length human SYK pre-incubated for 30 mins at room temperature before Ulight-TK peptide substrate addition and measured 1 hr after substrate addition by cell free kinase assay
[2] = Inhibition of CYP450 (unknown origin); type: ADME, Homo sapiens
[3] = Stability in human liver microsomes; type: ADME; conditions: read-out: Stability
[4] = Apparent permeability from apical to basolateral side in human Caco2 cells; type: ADME, cell-based; conditions: Caco-2
[5] = target: Proto-oncogene tyrosine-protein kinase receptor Ret (Homo sapiens, UniProt P07949); assay: Inhibition of human RET pre-incubated for 30 mins at room temperature before substrate addition and measured 1 hr after substrate addition by cell free kinase assay
Chain of Proto-oncogene tyrosine-protein kinase receptor Ret (P07949 whole entry): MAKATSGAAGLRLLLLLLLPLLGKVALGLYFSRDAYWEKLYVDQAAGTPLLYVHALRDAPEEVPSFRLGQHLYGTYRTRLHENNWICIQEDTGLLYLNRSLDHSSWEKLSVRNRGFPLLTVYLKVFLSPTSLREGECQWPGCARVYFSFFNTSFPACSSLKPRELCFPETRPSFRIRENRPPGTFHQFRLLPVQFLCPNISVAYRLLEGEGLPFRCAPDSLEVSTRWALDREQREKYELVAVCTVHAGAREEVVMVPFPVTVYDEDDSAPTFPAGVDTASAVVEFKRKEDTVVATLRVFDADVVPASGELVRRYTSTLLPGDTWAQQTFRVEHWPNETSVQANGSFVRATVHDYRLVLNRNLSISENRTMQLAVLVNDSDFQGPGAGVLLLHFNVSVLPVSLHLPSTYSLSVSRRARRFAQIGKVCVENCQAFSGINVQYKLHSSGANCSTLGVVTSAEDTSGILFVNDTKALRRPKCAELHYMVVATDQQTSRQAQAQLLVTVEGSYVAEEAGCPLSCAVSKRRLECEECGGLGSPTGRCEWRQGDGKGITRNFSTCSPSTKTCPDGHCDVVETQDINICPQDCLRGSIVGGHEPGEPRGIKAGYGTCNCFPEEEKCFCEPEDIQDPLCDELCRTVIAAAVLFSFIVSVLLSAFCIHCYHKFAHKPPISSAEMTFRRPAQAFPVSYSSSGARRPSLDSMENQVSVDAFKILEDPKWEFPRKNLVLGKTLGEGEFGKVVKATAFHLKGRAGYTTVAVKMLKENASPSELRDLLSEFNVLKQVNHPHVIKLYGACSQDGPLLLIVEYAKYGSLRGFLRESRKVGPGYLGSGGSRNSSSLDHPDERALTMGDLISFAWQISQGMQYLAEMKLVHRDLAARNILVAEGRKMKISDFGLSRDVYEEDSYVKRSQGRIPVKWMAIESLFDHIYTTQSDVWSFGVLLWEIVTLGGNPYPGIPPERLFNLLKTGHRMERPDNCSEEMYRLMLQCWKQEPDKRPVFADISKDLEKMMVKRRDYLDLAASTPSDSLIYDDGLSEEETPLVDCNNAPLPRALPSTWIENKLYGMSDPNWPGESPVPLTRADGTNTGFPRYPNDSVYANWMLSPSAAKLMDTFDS

[6] = target: T2, Tyrosine-protein kinase ZAP-70 (Homo sapiens, UniProt P43403); assay: Inhibition of purified full-length human ZAP70 pre-incubated for 30 mins at room temperature before UlighTM-PolyGT peptide substrate addition and measured 1 hr after substrate addition by cell free kinase assay
T2 sequence (P43403 whole entry): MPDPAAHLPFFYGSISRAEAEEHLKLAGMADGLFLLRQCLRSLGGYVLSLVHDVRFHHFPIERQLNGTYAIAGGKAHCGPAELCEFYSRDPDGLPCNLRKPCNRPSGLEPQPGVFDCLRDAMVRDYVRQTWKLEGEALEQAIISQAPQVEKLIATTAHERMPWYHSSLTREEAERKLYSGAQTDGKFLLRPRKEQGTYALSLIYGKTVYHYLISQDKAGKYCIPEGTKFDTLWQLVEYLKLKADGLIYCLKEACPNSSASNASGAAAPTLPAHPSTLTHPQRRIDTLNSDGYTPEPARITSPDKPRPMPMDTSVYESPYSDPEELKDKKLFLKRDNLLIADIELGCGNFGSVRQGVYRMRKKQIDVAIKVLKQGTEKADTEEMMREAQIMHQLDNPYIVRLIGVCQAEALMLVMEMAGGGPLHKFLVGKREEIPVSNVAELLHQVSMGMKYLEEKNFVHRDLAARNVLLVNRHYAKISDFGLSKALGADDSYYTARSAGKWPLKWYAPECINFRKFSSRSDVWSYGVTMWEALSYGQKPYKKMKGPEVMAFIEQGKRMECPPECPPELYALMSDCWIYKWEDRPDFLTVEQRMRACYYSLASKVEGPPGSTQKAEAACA

[7] = target: T3, Tyrosine-protein kinase JAK3 (Homo sapiens, UniProt P52333); assay: Inhibition of JAK3 (unknown origin) pre-incubated for 30 mins at room temperature before substrate addition and measured 1 hr after substrate addition by cell free kinase assay
T3 sequence (P52333 whole entry): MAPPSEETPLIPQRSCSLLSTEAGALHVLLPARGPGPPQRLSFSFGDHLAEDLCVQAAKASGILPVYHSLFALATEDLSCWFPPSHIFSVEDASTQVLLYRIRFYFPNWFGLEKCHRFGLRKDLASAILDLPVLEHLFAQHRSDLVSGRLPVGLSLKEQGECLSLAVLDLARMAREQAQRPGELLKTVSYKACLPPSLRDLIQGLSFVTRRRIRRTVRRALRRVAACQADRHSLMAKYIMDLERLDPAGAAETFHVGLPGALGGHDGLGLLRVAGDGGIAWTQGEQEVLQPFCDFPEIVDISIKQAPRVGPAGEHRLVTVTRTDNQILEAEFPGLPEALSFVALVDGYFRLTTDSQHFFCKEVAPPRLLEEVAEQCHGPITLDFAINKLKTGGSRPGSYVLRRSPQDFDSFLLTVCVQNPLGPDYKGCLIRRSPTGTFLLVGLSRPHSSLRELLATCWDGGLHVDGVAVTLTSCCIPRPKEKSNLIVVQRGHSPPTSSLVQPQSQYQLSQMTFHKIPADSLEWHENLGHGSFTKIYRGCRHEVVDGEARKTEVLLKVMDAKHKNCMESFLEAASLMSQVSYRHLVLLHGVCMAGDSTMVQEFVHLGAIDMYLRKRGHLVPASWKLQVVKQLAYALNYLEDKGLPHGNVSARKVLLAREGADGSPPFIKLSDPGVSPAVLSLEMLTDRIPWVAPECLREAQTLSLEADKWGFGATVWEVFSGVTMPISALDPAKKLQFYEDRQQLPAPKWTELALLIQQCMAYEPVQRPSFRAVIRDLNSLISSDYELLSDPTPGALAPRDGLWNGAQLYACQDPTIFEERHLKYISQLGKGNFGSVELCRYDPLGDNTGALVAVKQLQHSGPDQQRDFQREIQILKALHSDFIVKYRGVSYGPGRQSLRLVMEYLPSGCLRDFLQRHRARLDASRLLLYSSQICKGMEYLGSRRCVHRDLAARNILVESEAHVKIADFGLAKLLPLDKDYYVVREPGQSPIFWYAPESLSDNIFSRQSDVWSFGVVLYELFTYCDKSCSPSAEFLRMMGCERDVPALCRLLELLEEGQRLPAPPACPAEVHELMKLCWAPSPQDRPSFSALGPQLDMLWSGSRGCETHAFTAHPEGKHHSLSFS

[8] = system: Plasma; assay: Unbound fraction in human plasma; type: ADME, cell-free
[9] = Apparent permeability from basolateral to apical side in human Caco2 cells; type: ADME, cell-based; conditions: Caco-2
[10] = Terminal half life in Sprague-Dawley rat at 10 mg/kg, po; type: ADME, organism-based; conditions: in vivo, read-out: beta t1/2 (converted)
[11] = Clearance in Sprague-Dawley rat at 10 mg/kg, po; type: ADME, organism-based; conditions: in vivo
[12] = AUClast in Sprague-Dawley rat at 10 mg/kg; type: ADME, organism-based; set-up: dose 10 mg/kg, time 0 - last; conditions: in vivo
[13] = system: Rattus norvegicus; assay: Volume of distribution at steady state in Sprague-Dawley rat at 10 mg/kg, po; type: ADME, organism-based; conditions: in vivo
[14] = Oral bioavailability in Sprague-Dawley rat at 10 mg/kg; type: ADME, organism-based; conditions: in vivo
[15] = target: Cytochrome P450 3A4 (Homo sapiens, UniProt P08684); assay: Inhibition of CYP3A4 (unknown origin); type: ADME
Chain of Cytochrome P450 3A4 (P08684 whole entry): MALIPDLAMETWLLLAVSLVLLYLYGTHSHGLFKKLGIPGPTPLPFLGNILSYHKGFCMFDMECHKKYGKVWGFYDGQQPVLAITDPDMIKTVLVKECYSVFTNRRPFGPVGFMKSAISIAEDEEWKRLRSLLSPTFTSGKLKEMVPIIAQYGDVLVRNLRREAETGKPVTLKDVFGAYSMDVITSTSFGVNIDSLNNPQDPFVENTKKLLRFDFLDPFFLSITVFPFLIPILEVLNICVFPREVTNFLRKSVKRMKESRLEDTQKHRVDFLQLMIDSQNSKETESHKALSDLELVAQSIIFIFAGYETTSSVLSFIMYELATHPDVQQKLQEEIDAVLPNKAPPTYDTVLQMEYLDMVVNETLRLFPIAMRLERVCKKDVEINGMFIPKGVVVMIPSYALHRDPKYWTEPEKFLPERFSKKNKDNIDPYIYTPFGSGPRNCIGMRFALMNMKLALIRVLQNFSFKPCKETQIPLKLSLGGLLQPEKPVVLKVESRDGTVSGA

[16] = Apparent permeability in human Caco2 cells; type: ADME, cell-based; conditions: Caco-2
[17] = Kinetic solubility of the compound; type: physicochemical; conditions: read-out: Kinetic_solubility
[18] = target: T1, Tyrosine-protein kinase SYK; assay: Inhibition of SYK-mediated TNFalpha production in human IgG-stimulated human THP1 cells incubated for 18 hrs by ELISA method; type: cell-based, THP-1

Row | IC50 [1] | SMILES | also measured
1 | 144 nM | Cc1cn(-c2ccnc(Nc3cc(C)c(Oc4ccccc4)c(C)c3)n2)cc1CN1CC(O)C1 | 
2 |  | Cc1nn(-c2ccnc(Nc3ccc4c(c3)c(Cl)c(C)n4C)n2)cc1CN1CC[C@@H](O)C1 | IC50 [2]: > 10000 nM; half-life [3]: > 1 h; Papp A→B [4]: 6.2 ×10⁻⁶ cm/s; IC50 [5]: 9590 nM; IC50 [6]: 73400 nM; IC50 [7]: 478 nM; Fu [8]: < 0.4%; Papp B→A [9]: 7.3 ×10⁻⁶ cm/s
3 | 5.4 nM | Cc1cc(C)cc(Nc2nccc(-n3cc(C)c(CN4CC(O)C4)c3)n2)c1 | 
4 | 11.5 nM | Cc1cn(-c2ccnc(Nc3cc(C)c(OCCN4CCCC4)c(C)c3)n2)cc1CN1CC(O)C1 | 
5 | 13.2 nM | Cc1cc(C)cc(Nc2nccc(-n3cc(C)c(CN4CC[C@@H](N)C4)c3)n2)c1 | 
6 | 5.7 nM | COc1c(C)cc(Nc2nccc(-n3cc(C)c(CN4CC(O)C4)c3)n2)cc1C | half-life [10]: 1.2 h; CL/F [11]: 70 mL/min/kg; AUC(0-t) [12]: 550 ng·h/mL; Vdss [13]: 5.6 L/kg; bioavailability [14]: 7.8%
7 | 7.9 nM | Cc1cn(-c2ccnc(Nc3cc(C)c(OS(C)(=O)=O)c(C)c3)n2)cc1CN1CC[C@@H](O)C1 | 
8 | 5990 nM | Cc1nn(-c2nc(Nc3ccc4c(c3)c(C#N)nn4C)ncc2F)cc1CN1CC(O)C1 | 
9 | 36.6 nM | Cc1nn(-c2ccnc(Nc3ccc4c(ccn4C)c3)n2)cc1CN1CC(O)C1 | 
10 | 6.3 nM | Cc1cn(-c2ccnc(Nc3cc(C)c(OS(C)(=O)=O)c(C)c3)n2)cc1CN1CC(O)C1 | 
11 | 20.4 nM | Cc1nn(-c2ccnc(Nc3ccc4c(c3)CCN4C)n2)cc1CN1CC(O)C1 | 
12 | 101 nM | COc1cc(Nc2nccc(-n3cc(C)c(CN4CC[C@@H](O)C4)c3)n2)cc(OC)c1OCC(=O)N1CCCC1 | 
13 | 307 nM | Cc1cc(C)cc(Nc2nccc(-n3cc(C)c(CN4CCC(F)(F)CC4)c3)n2)c1 | 
14 | 8.9 nM | Cc1cc(Nc2nccc(-n3cc(CN4CC(O)C4)c(C)n3)n2)cc(C)c1OCCN1CCCC1 | 
15 | 6.2 nM | Cc1cc(C)cc(Nc2nccc(-n3cc(C)c(CN(C)C)c3)n2)c1 | 
16 | 71.8 nM | COc1cc(Nc2nccc(-n3cc(C)c(CN(C)C)c3)n2)cc(OC)c1OC | 
17 | 22.8 nM | CCn1ccc2cc(Nc3nccc(-n4cc(CN5CC(O)C5)c(C)n4)n3)ccc21 | 
18 | 5 nM | Cc1cn(-c2ccnc(Nc3cc(C)c(OCCO)c(C)c3)n2)cc1CN1CC(O)C1 | 

Row | IC50 [1] | SMILES | also measured
19 | 17.3 nM | Cc1cn(-c2ccnc(Nc3cc(C)c(OCCO)c(C)c3)n2)cc1CN1CC[C@@H](O)C1 | IC50 [15]: > 10000 nM; Papp [16]: 10.3 ×10⁻⁶ cm/s; solubility kinetic [17]: 120 µM (≈ 52.5 µg/mL)
20 | 377 nM | Cc1cn(-c2ccnc(Nc3cc(C)c(Oc4ccccc4)c(C)c3)n2)cc1CN1CC[C@@H](O)C1 | 
21 | 2.3 nM | Cc1cc(C)cc(Nc2nccc(-n3cc(C)c(CN4CC[C@@H](O)C4)c3)n2)c1 | IC50 [15]: 5100 nM; half-life [10]: 2.6 h; Papp [16]: 2 ×10⁻⁶ cm/s; IC50 [18]: 77 nM; CL/F [11]: 43 mL/min/kg; AUC(0-t) [12]: 6240 ng·h/mL; Vdss [13]: 4.3 L/kg; bioavailability [14]: 7.6%; IC50 [7]: 349 nM; solubility kinetic [17]: 70 µM (≈ 26.4 µg/mL)
22 | 3.7 nM | Cc1cc(C)cc(Nc2nccc(-n3cc(CN4CC[C@@H](O)C4)c(C4CC4)c3)n2)c1 | 
23 | 39.1 nM | Cc1cc(C)cc(Nc2nccc(-n3cc(CN4CCC(O)CC4)c(C)n3)n2)c1 | 
24 | 7.3 nM | Cc1cc(C)cc(Nc2nccc(-n3cc(CN4CC(O)C4)c(C)n3)n2)c1 | 
25 | 14.4 nM | Cc1cn(-c2ccnc(Nc3cc(C)c(OCC(=O)N4CCCC4)c(C)c3)n2)cc1CN1CC[C@@H](O)C1 | 
26 | 871 nM | Cc1nn(-c2ccnc(Nc3ccccc3)n2)cc1CN1CC[C@@H](O)C1 | 
27 | 17.8 nM | Cc1cc(C)cc(Nc2nccc(-n3cc(C)c(CN4CC[C@H](C(=O)O)C4)c3)n2)c1 | 
28 | 1.9 nM | Cc1cc(C)cc(Nc2nccc(-n3cc(CN4CC(O)C4)c(C4CC4)c3)n2)c1 | 
29 | 61.4 nM | COc1cc(Nc2nccc(-n3cc(C)c(CN4CC(O)C4)c3)n2)cc(OC)c1OCC(=O)N1CCCC1 | 
30 | 7.3 nM | Cc1cn(-c2ccnc(Nc3cc(C)c(OCC(=O)N4CCCC4)c(C)c3)n2)cc1CN1CC(O)C1 | 
31 | 8 nM | Cc1nn(-c2ccnc(Nc3ccc4c(cnn4C4CC4)c3)n2)cc1CN1CC(O)C1 | 
32 | 38 nM | COc1cc(Nc2nccc(-n3cc(C)c(CN4CC(O)C4)c3)n2)cc(OC)c1OC | 
33 | 9.2 nM | CCn1ccc2cc(Nc3nccc(-n4cc(CN5CC(O)C5)c(C5CC5)n4)n3)ccc21 | 
34 | 3.5 nM | Cc1cc(C)cc(Nc2nccc(-n3cc(CN4CC[C@@H](O)C4)c(C)n3)n2)c1 | 
35 | 326 nM | Cc1nn(-c2nc(Nc3ccc4c(cnn4C)c3)ncc2F)cc1CN1CC(O)C1 | 
